Results reported in patent publication US8293738B2, “Indazole inhibitors of kinase” (Abbott Laboratories, priority 2010, dated 2012).

Legend:
[1] = system: H1299 cells (Human Non-Small Cell Lung Carcinoma); assay: Induction of polyploidy in H1299 cells, high content analysis; assay type: cell-based; conditions: NCI-H1299 cells, 48 hours, polyploid = nuclear area >750μ2, read-out: Polyploid HCA IC50
Procedure: To determine the induction of polyploidy in H1299 cells (Human Non-Small Cell Lung Carcinoma), NCI-H1299 were seeded (4K/well) into 96-well culture plates (tissue culture grade, black, flat-clear bottom) and incubated overnight to produce cell-to-plate adherance Inhibitors at varying concentrations were added into duplicate wells containing cells and culture media (RPMI 1640, 10% fetal calf serum) and incubated at 37 C for 48 hours. The plates were then washed with PBS and the adherent cells fixed by incubating with 3% formalin for 1 hour. After washing four times with PBS, the cells were then stained with Hoechst and subjected to fluorescent (3601/460e) microscopic high content analysis to determine the effect of inhibitors on nuclear size. Polyploid cells (>4N) were defined as those having nuclear area >750μ2. […]

Aurora B = molecular target: T1, Aurora B (Homo sapiens, UniProt Q96GD4); assay: Aurora B enzyme assay (time-resolved fluorescence, histone H3 peptide); assay type: biochemical; conditions: 1 mM ATP, 1 hour
T1 construct: Active Aurora B enzyme (recombinant residues 1-344)
Procedure: To determine Aurora B activity of representative compounds of the invention, Active Aurora B enzyme (recombinant residues 1-344) and INCENP (recombinant GST fusion protein (Upstate)) were incubated in wells of a 384 well plate with biotinylted histone H3 peptide residues 1-21 (Upstate), 1 mM ATP, and various concentrations of inhibitors in a HEPES buffer, pH 7.4 containing MgCl2, sodium othrovanadate, and Triton X-100. After 1 hour, the reaction was stopped with EDTA and anti-phospho-histone H3 Europium Cryptate (Cis-Bio) and SA-APC (Phycolink, Prozyme) were added to detect the phosphopeptide. The amount of phosphorylation was determined by the time-resolved fluorescence ratio of signals at 665 nm and 615 nm. The IC50's were calculated by an exponential fit of the inhibition values with the inhibitor concentrations using Assay Explorer software.

Aurora A = molecular target: T2, Aurora A (Homo sapiens, UniProt O14965); assay: Aurora A enzyme assay (time-resolved fluorescence, STK substrate-2); assay type: biochemical; conditions: 1 mM ATP, 1 hour
T2 sequence (O14965 1-403): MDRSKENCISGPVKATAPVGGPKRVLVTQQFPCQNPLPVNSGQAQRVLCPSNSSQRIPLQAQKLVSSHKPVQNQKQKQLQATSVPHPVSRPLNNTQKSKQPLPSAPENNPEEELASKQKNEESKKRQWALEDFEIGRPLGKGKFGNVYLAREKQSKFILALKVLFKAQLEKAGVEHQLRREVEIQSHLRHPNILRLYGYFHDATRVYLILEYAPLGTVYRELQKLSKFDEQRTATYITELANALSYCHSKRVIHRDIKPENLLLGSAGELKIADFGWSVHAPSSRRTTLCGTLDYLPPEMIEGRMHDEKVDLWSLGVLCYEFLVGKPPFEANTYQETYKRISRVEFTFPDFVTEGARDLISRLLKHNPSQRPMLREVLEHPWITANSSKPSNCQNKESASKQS
Procedure: To determine Aurora A and C activity of representative compounds of the invention, Active Aurora A or C enzyme was incubated in wells of a 384 well plate with biotinylated STK substrate-2 (Upstate), 1 mM ATP, and various concentrations of inhibitors in a Hepes buffer, pH 7.4 containing MgCl2, sodium othrovanadate, and Triton X-100. After 1 hour, the reaction was stopped with EDTA and anti-phospho-STK antibody Europium Cryptate (Upstate) and SA-XL665 (Upstate) were added to detect the phosphopeptide. The amount of phosphorylation was determined by the time-resolved fluorescence ratio of signals at 665 nm and 615 nm. The IC50s were calculated by an exponential fit of the inhibition values with the inhibitor concentrations using Assay Explorer software.

KDR = KDR (Homo sapiens, UniProt P35968); assay: KDR HTRF in vitro kinase assay; assay type: biochemical; set-up: purified enzyme (His6-KDR 789-1354, MW 63 kD); conditions: 1 mM ATP, 60 minutes
Procedure: To determine the activity of the various kinases, a homogenous time-resolved fluorescence (HTRF) in vitro kinase assay was used. (Mathis, G., HTRF(R) Technology. J Biomol Screen, 1999. 4(6): p. 309-314; Alfred J. Kolb, Paul V. Kaplita, David J. Hayes, Young-Whan Park, Christine Pernell, John S. Major and Gerard Mathis, Drug Discovery Today, 1998, 3, 333-342.)
For example for KDR, 7 ng/well of purified enzyme (His6-KDR 789-1354, MW 63 kD) was mixed with 0.5 μM N-biotinylated substrate (Biotin-Ahx-AEEEYFFLA-amide (SEQ. ID. 1)), various concentrations of inhibitor in reaction buffer (50 mM HEPES, pH 7.1, mM MgCl2, 2 mM MnCl2, 0.1% BSA and 1 mM DTT, […] final volume), ATP (1 mM final conc.) in a black 384-well plate. After 60 minutes incubation at room temperature, the reaction was quenched by addition of a buffered EDTA solution (final approximate concentrations: 30 mM EDTA, 0.1% BSA, 0.1% Triton X-100 and 0.24M KF) and a solution of revelation agents (to give 0.084 ng/well streptavidin-XL-665 (Cis-Bio) and 6.5 ng/well antiphsophotyrosine mAb PT66-K Europium kryptate) was added to the reaction mixture. The quenched reaction was allowed to stand at room temperature for 3 hours and was then read in a time-resolved fluorescence detector (InVision, Perkin-Elmer) at 620 nm and 665 nm sequentially with excitation. The ratio between the signal of 620 nm and 665 nm was used in the calculation of the IC50.

Chain of KDR (P35968 789-1354): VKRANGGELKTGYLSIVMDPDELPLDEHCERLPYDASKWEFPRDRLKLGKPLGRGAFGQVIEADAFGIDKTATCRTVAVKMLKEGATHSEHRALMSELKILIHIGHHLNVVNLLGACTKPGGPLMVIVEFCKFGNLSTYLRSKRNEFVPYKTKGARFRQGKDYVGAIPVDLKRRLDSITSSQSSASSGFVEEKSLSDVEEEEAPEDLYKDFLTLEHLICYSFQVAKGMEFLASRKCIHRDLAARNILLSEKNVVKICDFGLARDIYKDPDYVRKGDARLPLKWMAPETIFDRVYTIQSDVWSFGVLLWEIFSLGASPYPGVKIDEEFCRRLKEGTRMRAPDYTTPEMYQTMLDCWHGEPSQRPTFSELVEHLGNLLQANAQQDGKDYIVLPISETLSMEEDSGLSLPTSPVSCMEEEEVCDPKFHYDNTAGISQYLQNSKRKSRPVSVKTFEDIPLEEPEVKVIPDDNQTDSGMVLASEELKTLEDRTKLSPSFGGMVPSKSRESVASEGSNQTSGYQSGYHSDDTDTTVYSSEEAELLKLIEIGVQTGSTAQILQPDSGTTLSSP
T1 sequence (Q96GD4 whole entry, the tested form may be a part): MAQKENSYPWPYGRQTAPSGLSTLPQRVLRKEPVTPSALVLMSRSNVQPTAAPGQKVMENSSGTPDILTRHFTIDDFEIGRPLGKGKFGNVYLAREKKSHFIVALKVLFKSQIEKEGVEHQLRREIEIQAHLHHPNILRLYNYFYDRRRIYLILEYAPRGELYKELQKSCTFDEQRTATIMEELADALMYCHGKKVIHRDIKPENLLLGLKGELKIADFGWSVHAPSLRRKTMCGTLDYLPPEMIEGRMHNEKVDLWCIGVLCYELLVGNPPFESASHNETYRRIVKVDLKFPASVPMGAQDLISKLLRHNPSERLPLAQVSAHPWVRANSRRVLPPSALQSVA
T1 sequence (Q9NQS7 826-918 partner limits assumed): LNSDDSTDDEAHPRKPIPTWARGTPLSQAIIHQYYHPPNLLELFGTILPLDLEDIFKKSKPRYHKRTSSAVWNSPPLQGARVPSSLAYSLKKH

| SMILES | IC50 [1] | IC50 (Aurora B) | IC50 (Aurora A) | IC50 (KDR) |
| --- | --- | --- | --- | --- |
| O=C(Nc1ccc(-c2ccc3c(-c4ccn[nH]4)n[nH]c3c2)cc1)Nc1cccc(F)c1 [Example 8, N-(3-fluorophenyl)-N′-{4-[3-(1H-pyrazol-5-yl)-1H-indazol-6-yl]phenyl}urea] | 12 nM | 23.3 nM | 3.4 µM | 525 nM |
| Cn1cc(-c2n[nH]c3cc(-c4ccc(NC(=O)Nc5ccc(Cl)cc5)cc4)ccc23)cn1 [Example 20, N-(4-chlorophenyl)-N′-{4-[3-(1-methyl-1H-pyrazol-4-yl)-1H-indazol-6-yl]phenyl}urea] | < 1 nM | 24.7 nM | > 12.5 µM | 122 nM |
| O=C(Nc1ccc(-c2ccc3c(-c4cnn[nH]4)n[nH]c3c2)cc1)Nc1cccc(F)c1 [Example 21, N-(3-fluorophenyl)-N′-{4-[3-(1H-1,2,3-triazol-5-yl)-1H-indazol-6-yl]phenyl}urea] | 128 nM | 58.3 nM | 10.2 µM | 154 nM |
| Cn1cc(-c2n[nH]c3cc(-c4ccc(NC(=O)Nc5ccccc5C(F)(F)F)cc4)ccc23)cn1 [Example 26, N-{4-[3-(1-methyl-1H-pyrazol-4-yl)-1H-indazol-6-yl]phenyl}-N′-[2-(trifluoromethyl)phenyl]urea] | 13 nM | 62.3 nM | > 12.5 µM | 325 nM |
| Cn1cc(-c2n[nH]c3cc(-c4ccc(NC(=O)Nc5ccc(OC(F)(F)F)cc5)cc4)ccc23)cn1 [Example 28, N-{4-[3-(1-methyl-1H-pyrazol-4-yl)-1H-indazol-6-yl]phenyl}-N′-[4-(trifluoromethoxy)phenyl]urea] | – | 871 nM | > 12.5 µM | 38 nM |
| Cn1cc(-c2n[nH]c3cc(-c4cccc(CNC(=O)Nc5cccc(F)c5)c4)ccc23)cn1 [Example 29, N-(3-fluorophenyl)-N′-{3-[3-(1-methyl-1H-pyrazol-4-yl)-1H-indazol-6-yl]benzyl}urea] | 113 nM | 25 nM | 3.34 µM | 137 nM |
| Cn1cc(-c2n[nH]c3cc(-c4ccc(CNC(=O)c5cccc(F)c5)cc4)ccc23)cn1 [Example 31, 3-fluoro-N-{4-[3-(1-methyl-1H-pyrazol-4-yl)-1H-indazol-6-yl]benzyl}benzamide] | – | 142 nM | 5.21 µM | 1790 nM |
| Cc1cccc(NC(=O)Nc2ccc(-c3ccc4c(-c5ccccc5)n[nH]c4c3)cc2)c1 [Example 32, N-(3-methylphenyl)-N′-[4-(3-phenyl-1H-indazol-6-yl)phenyl]urea] | – | 1920 nM | > 12.5 µM | 3610 nM |
| Cc1cccc(NC(=O)Nc2ccc(-c3ccc4c(-c5cccnc5)n[nH]c4c3)cc2)c1 [Example 33, N-(3-methylphenyl)-N′-[4-(3-pyridin-3-yl-1H-indazol-6-yl)phenyl]urea] | – | 120 nM | > 12.5 µM | 584 nM |
| Cc1cccc(NC(=O)Nc2cccc(-c3ccc4c(-c5cccnc5)n[nH]c4c3)c2)c1 [Example 34, N-(3-methylphenyl)-N′-[3-(3-pyridin-3-yl-1H-indazol-6-yl)phenyl]urea] | – | > 12500 nM | > 12.5 µM | 278 nM |
| Cc1cccc(NC(=O)Nc2ccc(-c3ccc4c(-c5cscn5)n[nH]c4c3)cc2)c1 [Example 35, N-(3-methylphenyl)-N′-{4-[3-(1,3-thiazol-4-yl)-1H-indazol-6-yl]phenyl}urea] | – | 569 nM | > 12.5 µM | 558 nM |
| Cc1cccc(NC(=O)Nc2ccc(-c3ccc4c(-c5cc6ccccc6[nH]5)n[nH]c4c3)cc2)c1 [Example 36, N-{4-[3-(1H-indol-2-yl)-1H-indazol-6-yl]phenyl}-N′-(3-methylphenyl)urea] | – | > 12500 nM | > 12.5 µM | 303 nM |
